Assay results: ChEMBL document CHEMBL1268874, “A concise, total synthesis and antibacterial evaluation of 2-hydroxy-1-(1H-indol-3-yl)-4-methylpentan-3-one” (2010)
≈ marks a conversion by molar mass, not a printed value.

How the values were obtained:
Format in all cases: functional
Acinetobacter baumannii = experiment: Antibacterial activity against Acinetobacter baumannii ATCC 19606 after 16 to 20 hrs by broth microdilution method; details: ATCC 19606 = CIP 70.34 = JCM 6841
Escherichia coli [1] = experiment: Antibacterial activity against Escherichia coli 700 expressing TolC after 16 to 20 hrs by broth microdilution method
Escherichia coli [2] = experiment: Antibacterial activity against TolC deficient Escherichia coli 701 after 16 to 20 hrs by broth microdilution method
Pseudomonas aeruginosa [3] = experiment: Antibacterial activity against Pseudomonas aeruginosa PAO1 after 16 to 20 hrs by broth microdilution method
[4] = test system: Stenotrophomonas maltophilia; experiment: Antibacterial activity against Stenotrophomonas maltophilia ATCC 13637 after 16 to 20 hrs by broth microdilution method
Klebsiella pneumoniae [5] = experiment: Antibacterial activity against Klebsiella pneumoniae 13882 after 16 to 20 hrs by broth microdilution method
Klebsiella pneumoniae [6] = experiment: Antibacterial activity against Klebsiella pneumoniae 700603 after 16 to 20 hrs by broth microdilution method
Bacillus subtilis = experiment: Antibacterial activity against Bacillus subtilis BD54 after 16 to 20 hrs by broth microdilution method
Bacillus anthracis = experiment: Antibacterial activity against Bacillus anthracis Sterne after 16 to 20 hrs by broth microdilution method
Staphylococcus aureus [7] = experiment: Antibacterial activity against Staphylococcus aureus ATCC 25923 after 16 to 20 hrs by broth microdilution method
Staphylococcus aureus [8] = experiment: Antibacterial activity against methicillin-resistant Staphylococcus aureus 1094 after 16 to 20 hrs by broth microdilution method
Pseudomonas aeruginosa [9] = experiment: Antibacterial activity against DmexAB-oprM deletion mutant of Pseudomonas aeruginosa PAO1 after 16 to 20 hrs by broth microdilution method
Enterococcus faecalis [10] = experiment: Antibacterial activity against Enterococcus faecalis ATCC 29212 after 16 to 20 hrs by broth microdilution method
Enterococcus faecalis [11] = experiment: Antibacterial activity against vancomycin-resistant Enterococcus faecalis ATCC 51575 after 16 to 20 hrs by broth microdilution method
Burkholderia cepacia [12] = experiment: Antibacterial activity against Burkholderia cepacia 39277 after 16 to 20 hrs by broth microdilution method
Burkholderia cepacia [13] = experiment: Antibacterial activity against Burkholderia cepacia 55792 after 16 to 20 hrs by broth microdilution method
[14] = Bacillus subtilis, BD54, read-out: MIC

CC(C)C(O)C(=O)Cc1c[nH]c2ccccc12 (single isomer, unassigned; (-))
MIC (Acinetobacter baumannii): > 80 µg/mL
MIC (Escherichia coli [1]): > 80 µg/mL
MIC (Escherichia coli [2]): > 80 µg/mL
MIC (Pseudomonas aeruginosa [3]): > 80 µg/mL
MIC [4]: > 80 µg/mL
MIC (Klebsiella pneumoniae [5]): > 80 µg/mL
MIC (Klebsiella pneumoniae [6]): > 80 µg/mL
MIC (Bacillus subtilis; [14]): > 80 µg/mL
MIC (Bacillus anthracis): > 80 µg/mL
MIC (Staphylococcus aureus [7]): > 80 µg/mL
MIC (Staphylococcus aureus [8]): > 80 µg/mL

O=C(O)c1cn(C2CC2)c2cc(N3CCNCC3)c(F)cc2c1=O [CIPROFLOXACIN]
MIC (Acinetobacter baumannii): 1.25 µg/mL (≈ 3.77 µM)
MIC (Pseudomonas aeruginosa [3]): 0.313 µg/mL (≈ 0.945 µM)
MIC (Pseudomonas aeruginosa [9]): 20 µg/mL (≈ 60.4 µM)
MIC [4]: 0.313 µg/mL (≈ 0.945 µM)
MIC (Klebsiella pneumoniae [5]): 0.078 µg/mL (≈ 0.235 µM)
MIC (Klebsiella pneumoniae [6]): 0.313 µg/mL (≈ 0.945 µM)
MIC (Bacillus subtilis; [14]): 0.078 µg/mL (≈ 0.235 µM)
MIC (Staphylococcus aureus [7]): 469 µg/mL (≈ 1420 µM)
MIC (Staphylococcus aureus [8]): 20 µg/mL (≈ 60.4 µM)
MIC (Enterococcus faecalis [10]): 1.9 µg/mL (≈ 5.73 µM)
MIC (Enterococcus faecalis [11]): 0.625 µg/mL (≈ 1.89 µM)
MIC (Burkholderia cepacia [12]): 0.078 µg/mL (≈ 0.235 µM)
MIC (Burkholderia cepacia [13]): 0.039 µg/mL (≈ 0.118 µM)

CC(C)C(=O)C(O)Cc1c[nH]c2ccccc12 (single isomer, unassigned; (+))
MIC (Acinetobacter baumannii): > 80 µg/mL
MIC (Escherichia coli [1]): > 80 µg/mL
MIC (Escherichia coli [2]): > 80 µg/mL
MIC (Pseudomonas aeruginosa [3]): > 80 µg/mL
MIC [4]: > 80 µg/mL
MIC (Klebsiella pneumoniae [5]): > 80 µg/mL
MIC (Klebsiella pneumoniae [6]): > 80 µg/mL
MIC (Bacillus subtilis; [14]): > 80 µg/mL
MIC (Bacillus anthracis): > 80 µg/mL
MIC (Staphylococcus aureus [7]): > 80 µg/mL
MIC (Staphylococcus aureus [8]): > 80 µg/mL
MIC (Enterococcus faecalis [10]): > 80 µg/mL
MIC (Enterococcus faecalis [11]): > 80 µg/mL
MIC (Burkholderia cepacia [12]): > 80 µg/mL
MIC (Burkholderia cepacia [13]): > 80 µg/mL

CC(C)C(O)C(=O)Cc1c[nH]c2ccccc12 (single isomer, unassigned; (+))
MIC (Bacillus subtilis): >40 µg/mL
MIC (Enterococcus faecalis [10]): > 80 µg/mL
MIC (Enterococcus faecalis [11]): > 80 µg/mL
MIC (Burkholderia cepacia [12]): > 80 µg/mL
MIC (Burkholderia cepacia [13]): > 80 µg/mL

CC(=O)OC(C(=O)Cc1c[nH]c2ccccc12)C(C)C (centres undefined)
MIC (Acinetobacter baumannii): > 80 µg/mL
MIC (Escherichia coli [1]): > 80 µg/mL
MIC (Escherichia coli [2]): > 80 µg/mL
MIC (Pseudomonas aeruginosa [3]): > 80 µg/mL
MIC [4]: > 80 µg/mL
MIC (Klebsiella pneumoniae [5]): > 80 µg/mL
MIC (Klebsiella pneumoniae [6]): > 80 µg/mL
MIC (Bacillus subtilis; [14]): > 80 µg/mL
MIC (Bacillus anthracis): > 80 µg/mL
MIC (Staphylococcus aureus [7]): > 80 µg/mL
MIC (Staphylococcus aureus [8]): > 80 µg/mL
MIC (Enterococcus faecalis [10]): > 80 µg/mL
MIC (Enterococcus faecalis [11]): > 80 µg/mL
MIC (Burkholderia cepacia [12]): > 80 µg/mL
MIC (Burkholderia cepacia [13]): > 80 µg/mL

CC(=O)OC(Cc1c[nH]c2ccccc12)C(=O)C(C)C (centres undefined)
MIC (Acinetobacter baumannii): > 80 µg/mL
MIC (Escherichia coli [1]): > 80 µg/mL
MIC (Escherichia coli [2]): > 80 µg/mL
MIC (Pseudomonas aeruginosa [3]): > 80 µg/mL
MIC [4]: > 80 µg/mL
MIC (Klebsiella pneumoniae [5]): > 80 µg/mL
MIC (Klebsiella pneumoniae [6]): > 80 µg/mL
MIC (Bacillus subtilis; [14]): > 80 µg/mL
MIC (Bacillus anthracis): > 80 µg/mL
MIC (Staphylococcus aureus [7]): > 90 µg/mL
MIC (Staphylococcus aureus [8]): > 80 µg/mL
MIC (Enterococcus faecalis [10]): > 80 µg/mL
MIC (Enterococcus faecalis [11]): > 80 µg/mL
MIC (Burkholderia cepacia [12]): > 80 µg/mL
MIC (Burkholderia cepacia [13]): > 80 µg/mL
